Reference: patent US7053175B1, “Synthetic peptides useful in biological assays for detecting infections caused by group O HIV-1 viruses” (Bio-Rad Pasteur, priority 1997, dated 2006)
No end group written: not given here.

Test system: sera from patients infected with group O HIV-1 retroviruses
Experiment: Immunoenzymatic test: Test No. 1 (immunoreactivity of peptides coated on microplates)
Format: binding, human
Parameters: key to ABSORBANCE: >: signal greater than the reading capacity of the spectrophotometer
Settings: for ABSORBANCE: cyclized peptide 2 μg/ml
Description: The sera used ESS, DUR, VAU and HAD are sera from French patients infected with group O HIV-1 retroviruses. The other serum samples from patients infected with group O HIV-1 retroviruses were obtained by the Yaoundé Pasteur Centre in Cameroon and were serotyped group O according to the serological algorithm described in AIDS (1977), 11, pp 445-453.
The HIV-negative sera (n=48) were obtained from healthy volunteers.
The synthetic peptides used were dissolved in water at a concentration of 1 mg/ml (stock solution). For the solid phase sensitization step (coating), 110 μl of a solution at 2 μg/ml of each peptide (obtained by diluting the stock solution with 0.1 M carbonate buffer solution) were added to each well of the microtitre plates Microtiter™ (NUNC). After incubating overnight at room temperature, the microplates were first washed with a Tris-NaCl buffer solution pH 7.4 containing 0.1% of Tween® 20 and 0.001% sodium merthiolate, and then saturated with a PBS solution containing 0.5% of Régilait™ (dried skimmed milk). After aspirating the saturating solution, the plates were heated for 10 min at 50° C.
The serum samples were diluted 1/5 with a skimmed milk solution (citrate buffer supplemented with 0.01% of phenol red, 0.25% of chloroform and 0.25% of Kathon®), deposited in the wells of the plates and incubated for 30 min at 40° C.
After washing with a Tris-NaCl buffer solution pH 7.4 containing 0.1% of Tween® 20 and 0.001% of sodium merthiolate, 100 μl of a solution of conjugate consisting of horseradish peroxidase-labelled anti-human IgG and IgM goat antibodies, containing as preservative 0.01% of sodium merthiolate, in solution in a citrate buffer solution supplemented with 30% glycerol and 25% normal foetal calf serum, were added to each plate well and then the plates were incubated for 30 min at 40° C.
After washing with a Tris-NaCl buffer solution pH 7.4 containing 0.1% of Tween® 20 and 0.001% of sodium merthiolate, the colour was developed by adding, to each well, 100 μl of O-phenylenediamine in solution in hydrogen peroxide. The microplates were then incubated for 30 min at room temperature and in the dark. The coloured reaction was then stopped by addition of 100 μl of 4N sulphuric acid. The absorbance (A) was determined at 490 and 620 nm.
The relative absorbance (A490-A620) read in each well is proportional to the immunoreactivity of each peptide. It indicates the ability of each peptide to react with the biological sample with which the test is carried out. The cut-off value was determined as being an absorbance equal to 0.15. It corresponds to the mean of the negative values (n=48) plus 12 standard deviations.
The reactivity of the peptides of the invention (peptide No. 3 (4B), peptide No. 2 (3B) and peptide No. 1 (2B), all in cyclized form), was compared with that of two synthetic peptides having, as sequence, a portion of the natural sequence of the envelope (env) of the VAU isolate (group O HIV-1 retrovirus) and comprising an immunodominant epitope of gp41.
For the study, these peptides were used in cyclized form.

“LLNLWGCKNRAICYTSVKWNKT (cysteine pairing not given here) [VAU 22 AA, reference compound]” was tested, and the ABSORBANCE (serum 134) was “>”, the ABSORBANCE (serum 402) was “>” and the ABSORBANCE (serum 625) was “>”. The ABSORBANCE (serum 1062) was “>”, the ABSORBANCE (serum 1105*) was 0.099 and the ABSORBANCE (serum 1581) was 1.112. The ABSORBANCE (serum 1702) was “>”, the ABSORBANCE (serum 1754) was 1.263 and the ABSORBANCE (serum 2294) was “>”. For the same sequence, the ABSORBANCE (serum 2312) was “>”, the ABSORBANCE (serum 2313) was “>” and the ABSORBANCE (serum 2352) was “>”. For the same sequence, the ABSORBANCE (serum 2551) was “>”, the ABSORBANCE (serum 2700) was “>” and the ABSORBANCE (serum 3016) was “>”. For the same sequence, the ABSORBANCE (serum 3136) was “>”, the ABSORBANCE (serum 3235) was “>” and the ABSORBANCE (serum 3236) was “>”. For the same sequence, the ABSORBANCE (serum 3302) was “>”, the ABSORBANCE (serum 3482) was “>” and the ABSORBANCE (serum 3529) was “>”. For the same sequence, the ABSORBANCE (serum 3600*) was “>”, the ABSORBANCE (serum 3627*) was “>” and the ABSORBANCE (serum 3637) was 0.779. For the same sequence, the ABSORBANCE (serum 3653) was 1.441, the ABSORBANCE (serum 3771) was “>” and the ABSORBANCE (serum 3884*) was “>”. The ABSORBANCE (serum 3891) was “>”, the ABSORBANCE (serum 3935) was 0.138 and the ABSORBANCE (serum 3945) was “>”. The ABSORBANCE (serum 4021*) was 0.050, the ABSORBANCE (serum 4288*) was 2.337 and the ABSORBANCE (serum 4364) was “>”. It also gave an ABSORBANCE (serum 4434) of 2.273, an ABSORBANCE (serum 4477) of 2.511 and an ABSORBANCE (serum 4489*) of 1.318. The ABSORBANCE (serum 5149*) was “>”, the ABSORBANCE (serum 5164) was “>” and the ABSORBANCE (serum 5210) was “>”. The ABSORBANCE (serum 5270*) was “>”, the ABSORBANCE (serum 5373) was 1.359 and the ABSORBANCE (serum 5453) was 1.267. The ABSORBANCE (serum 5766*) was “>”, the ABSORBANCE (serum 5931) was 0.202 and the ABSORBANCE (serum 5969*) was 2.491. The ABSORBANCE (serum 6111) was “>”, the ABSORBANCE (serum 6165) was “>” and the ABSORBANCE (serum 6198*) was “>”. It also gave an ABSORBANCE (serum 6295*) of 0.972, an ABSORBANCE (serum 6487) of 2.889 and an ABSORBANCE (serum 6512*) of 0.120. The ABSORBANCE (serum 6627) was “>”, the ABSORBANCE (serum 6689*) was “>” and the ABSORBANCE (serum 6697) was “>”. The ABSORBANCE (serum 6782) was 2.190, the ABSORBANCE (serum 6891) was 0.359 and the ABSORBANCE (serum 6976*) was “>”. The ABSORBANCE (serum 6998) was “>”, the ABSORBANCE (serum 7007) was “>” and the ABSORBANCE (serum 7120) was “>”. The ABSORBANCE (serum 7212) was “>”, the ABSORBANCE (serum 7258*) was “>” and the ABSORBANCE (serum 7297*) was “>”. The ABSORBANCE (serum 7439) was “>”, the ABSORBANCE (serum 7443) was 0.920 and the ABSORBANCE (serum DUR*) was 0.118. The ABSORBANCE (serum ESS*) was “>”, the ABSORBANCE (serum HAD) was 0.789 and the ABSORBANCE (serum VAU*) was “>”.

“LLSLWGCRGKAVCYTSVQWNET [PEPTIDE No. 1 (2B)]” was tested, and the ABSORBANCE (serum 134) was “>”, the ABSORBANCE (serum 402) was “>” and the ABSORBANCE (serum 625) was “>”. The ABSORBANCE (serum 1062) was “>”, the ABSORBANCE (serum 1105*) was “>” and the ABSORBANCE (serum 1581) was “>”. For the same sequence, the ABSORBANCE (serum 1702) was 1.162, the ABSORBANCE (serum 1754) was “>” and the ABSORBANCE (serum 2294) was 0.447. The ABSORBANCE (serum 2312) was “>”, the ABSORBANCE (serum 2313) was “>” and the ABSORBANCE (serum 2352) was 0.205. For the same sequence, the ABSORBANCE (serum 2551) was “>”, the ABSORBANCE (serum 2700) was “>” and the ABSORBANCE (serum 3016) was 0.243. For the same sequence, the ABSORBANCE (serum 3136) was 0.302, the ABSORBANCE (serum 3235) was “>” and the ABSORBANCE (serum 3236) was “>”. The ABSORBANCE (serum 3302) was 0.386, the ABSORBANCE (serum 3482) was 1.473 and the ABSORBANCE (serum 3529) was 1.803. The ABSORBANCE (serum 3600*) was 2.743, the ABSORBANCE (serum 3627*) was 2.910 and the ABSORBANCE (serum 3637) was “>”. It also gave an ABSORBANCE (serum 3653) of 0.044, an ABSORBANCE (serum 3771) of 0.544 and an ABSORBANCE (serum 3884*) of 1.839. The ABSORBANCE (serum 3891) was 2.780, the ABSORBANCE (serum 3935) was 0.307 and the ABSORBANCE (serum 3945) was “>”. For the same sequence, the ABSORBANCE (serum 4021*) was “>”, the ABSORBANCE (serum 4288*) was 2.802 and the ABSORBANCE (serum 4364) was 1.382. For the same sequence, the ABSORBANCE (serum 4434) was “>”, the ABSORBANCE (serum 4477) was “>” and the ABSORBANCE (serum 4489*) was “>”. For the same sequence, the ABSORBANCE (serum 5149*) was “>”, the ABSORBANCE (serum 5164) was “>” and the ABSORBANCE (serum 5210) was “>”. The ABSORBANCE (serum 5270*) was “>”, the ABSORBANCE (serum 5373) was “>” and the ABSORBANCE (serum 5453) was “>”. For the same sequence, the ABSORBANCE (serum 5766*) was “>”, the ABSORBANCE (serum 5931) was “>” and the ABSORBANCE (serum 5969*) was “>”. For the same sequence, the ABSORBANCE (serum 6111) was “>”, the ABSORBANCE (serum 6165) was 2.714 and the ABSORBANCE (serum 6198*) was “>”. For the same sequence, the ABSORBANCE (serum 6295*) was “>”, the ABSORBANCE (serum 6487) was 2.687 and the ABSORBANCE (serum 6512*) was “>”. For the same sequence, the ABSORBANCE (serum 6627) was “>”, the ABSORBANCE (serum 6689*) was “>” and the ABSORBANCE (serum 6697) was “>”. For the same sequence, the ABSORBANCE (serum 6782) was 2.462, the ABSORBANCE (serum 6891) was 0.062 and the ABSORBANCE (serum 6976*) was “>”. For the same sequence, the ABSORBANCE (serum 6998) was “>”, the ABSORBANCE (serum 7007) was “>” and the ABSORBANCE (serum 7120) was “>”. The ABSORBANCE (serum 7212) was “>”, the ABSORBANCE (serum 7258*) was 2.477 and the ABSORBANCE (serum 7297*) was “>”. For the same sequence, the ABSORBANCE (serum 7439) was “>”, the ABSORBANCE (serum 7443) was “>” and the ABSORBANCE (serum DUR*) was “>”. The ABSORBANCE (serum ESS*) was 2.494, the ABSORBANCE (serum HAD) was 0.041 and the ABSORBANCE (serum VAU*) was “>”. For the same sequence, the “immunoreactivity compared with the other peptides (in words)” value (summary of Table IV) was “more immunoreactive than the VAU 22 AA peptide”.
